Earlier results in PubChem BioAssay AID1259410 (Chemical Carcinogenesis Research Information System (CCRIS), 2018).
Numbered stars: 1 amine (or outer) side, 2 acyl side, 3 side chain; on linkers, the order of the positions; unused ones are H or OH. Square brackets hold non-standard residues; d marks the D form. Peptide text beside a SMILES is read from it. X1 = O=C(C(N[*:1])c1ccc(OS(=O)(=O)O)cc1)[*:2]

Test system: rodent tumor promotion studies, tumor incidence
Assay: CCRIS tumor promotion studies

SMILES: O=C1c2ccccc2C(=O)c2c(O)cccc21
- outcome (Carcinogen: METHYLAZOXYMETHANOL ACETATE, 592-62-1, Doses [Carcinogen]: 25 MG/KG BW 1/WK FOR 2 WK, Doses [Promoter]: 0, 1% IN DIET FOR 42 WK BEGINNING 1 WK POST CARCINOGEN TREATMENT (STUDY DURATION: 44 WK), Route [Carcinogen]: INTRAPERITONEAL, Route [Promoter]: ORAL, Species: RAT, Strain/Sex: ACI/FEMALE): intestine: adenoma
- outcome (Carcinogen: METHYLAZOXYMETHANOL ACETATE, 592-62-1, Doses [Carcinogen]: 25 MG/KG BW 1/WK FOR 2 WK, Doses [Promoter]: 0, 1% IN DIET FOR 42 WK BEGINNING 1 WK POST CARCINOGEN TREATMENT (STUDY DURATION: 44 WK), Route [Carcinogen]: INTRAPERITONEAL, Route [Promoter]: ORAL, Species: RAT, Strain/Sex: ACI/MALE): intestine: adenoma, adenocarcinoma

SMILES: Oc1ccc(O)cc1
- outcome (Carcinogen: N-ETHYL-N-HYDROXYETHYLNITROSAMINE, 13147-25-6, Doses [Carcinogen]: 0.1% IN DRINKING WATER FOR 3 WK, Doses [Promoter]: 0, 0.8% IN DIET FOR 36 WK BEGINNING 1 WK POST CARCINOGEN TREATMENT (STUDY DURATION: 40 WK), Route [Carcinogen]: ORAL, Route [Promoter]: ORAL, Species: RAT, Strain/Sex: WISTAR/MALE): kidney: microadenoma, renal cell tumor
- outcome (Carcinogen: N-METHYL-N-NITROSOUREA [684-93-5], Doses [Carcinogen]: 20 MG/KG BW ONCE ON DAY 9 AFTER BIRTH (STUDY DURATION: 28 WK), Doses [Promoter]: 0.8% IN DIET FOR 26 WK BEGINNING 2 WK POST LAST CARCINOGEN DOSE (STUDY DURATION: 28 WK), Route [Carcinogen]: INTRAPERITONEAL, Route [Promoter]: ORAL, Species: MOUSE, Strain/Sex: ICR (CD-1)/FEMALE): lung: adenoma
- outcome (Carcinogen: N-METHYL-N-NITROSOUREA [684-93-5], Doses [Carcinogen]: 20 MG/KG BW ONCE ON DAY 9 AFTER BIRTH (STUDY DURATION: 28 WK), Doses [Promoter]: 0.8% IN DIET FOR 26 WK BEGINNING 2 WK POST LAST CARCINOGEN DOSE (STUDY DURATION: 28 WK), Route [Carcinogen]: INTRAPERITONEAL, Route [Promoter]: ORAL, Species: MOUSE, Strain/Sex: ICR (CD-1)/MALE): lung: carcinoma

SMILES: CCCC(C)C1(CC)C(=O)NC(=O)NC1=O (stereo unspecified)
- outcome (Carcinogen: N-NITROSODIETHYLAMINE, 55-18-5, Doses [Carcinogen]: 75 MG/KG BW IN 0.85% SALINE ONCE, Doses [Promoter]: 0, 485 PPM IN DIET FOR DURATION OF STUDY BEGINNING 2 WK POST CARCINOGEN DOSE (STUDY DURATION: 78 WK), Route [Carcinogen]: INTRAPERITONEAL, Route [Promoter]: ORAL, Species: RAT, Strain/Sex: F344/MALE): liver: carcinoma, adenoma

SMILES: C1CCCCC1
- outcome (Carcinogen: DIMETHYLBENZ[A]ANTHRACENE, 57-97-6, Doses [Carcinogen]: 0.2 UMOL (51.2 UG) IN O.2 ML ACETONE ONCE, Doses [Promoter]: 0, 100 µL 3/WK ADMINISTERED 7 D POST CARCINOGEN DOSE AND CONTINUING FOR DURATION OF STUDY (STUDY DURATION: 1 YR), Route [Carcinogen]: DERMAL, Route [Promoter]: DERMAL, Species: MOUSE, Strain/Sex: SWISS/FEMALE): skin: tumor, squamous cell papilloma, keratoacanthoma

SMILES: O=C1NS(=O)(=O)c2ccccc21
- outcome (Carcinogen: FREEZE ULCERATION, Doses [Promoter]: 0, 5% IN DIET BEGINNING IMMEDIATELY, 2, 4, 6 OR 18 WK AFTER ULCERATION OF THE BLADDER BY FREEZING AND CONTINUING FOR DUR, Route [Promoter]: ORAL, Species: RAT, Strain/Sex: F344/MALE): urinary bladder: transitional cell carcinoma
- outcome (Carcinogen: METHYLNITROSOUREA, Doses [Carcinogen]: BLADDER IMP, Doses [Promoter]: IN DIET, Route [Carcinogen]: BLADDER IMPLANT, Route [Promoter]: ORAL, Species: RAT, Strain/Sex: WISTAR/FEMALE): urinary bladder
- outcome (Carcinogen: N-(4-(5-NITRO-2-FURYL)-2-THIAZOLYL)FORMAMIDE, 24554-26-5, Doses [Carcinogen]: 0.2% IN AIN-76A DIET FOR 4 WK, Doses [Promoter]: 0, 5% IN PROLAB DIET BEGINNING 1 WK POST CARCINOGEN TREATMENT AND CONTINUING FOR 100 WK (STUDY DURATION: 105 WK), Route [Carcinogen]: ORAL, Route [Promoter]: ORAL, Species: RAT, Strain/Sex: F344/MALE): bladder: papilloma and carcinoma
- outcome (Carcinogen: N-(4-(5-NITRO-2-FURYL)-2-THIAZOLYL)FORMAMIDE, 24554-26-5, Doses [Carcinogen]: 0.2% IN PROLAB DIET FOR 4 WK, Doses [Promoter]: 0, 5% IN PROLAB DIET BEGINNING 1 WK POST CARCINOGEN TREATMENT AND CONTINUING FOR 100 WK (STUDY DURATION: 105 WK), Route [Carcinogen]: ORAL, Route [Promoter]: ORAL, Species: RAT, Strain/Sex: F344/MALE): bladder: papilloma and carcinoma
- outcome (Carcinogen: N-(4-(5-NITRO-2-FURYL)-2-THIAZOLYL)FORMAMIDE, Doses [Carcinogen]: DIET, Doses [Promoter]: IN DIET, Route [Carcinogen]: ORAL, Route [Promoter]: ORAL, Species: RAT, Strain/Sex: F344/MALE): urinary bladder: carcinoma
- outcome (Carcinogen: N-BUTYL-N-4(HYDROXYBUTYL)NITROSAMINE, 3817-11-6, Doses [Carcinogen]: 0.05% IN DRINKING WATER FOR 2 WK, Doses [Promoter]: 0, 5% IN DIET STARTING POST CARCINOGEN AND CONTINUING FOR 22 WK, LEFT URETER LIGATED 8 D POST CARCINOGEN (STUDY DURATION, Route [Carcinogen]: ORAL, Route [Promoter]: ORAL, Species: RAT, Strain/Sex: F344/MALE): bladder: papilloma
- outcome (Carcinogen: N-BUTYL-N-(4-HYDROXYBUTYL)NITROSAMINE, 3817-11-6, Doses [Carcinogen]: 0.05% IN DRINKING WATER FOR 4 WK, Doses [Promoter]: 0, 5% IN DIET FOR 32 WK POST CARCINOGEN DOSE (STUDY DURATION: 36 WK), Route [Carcinogen]: ORAL, Route [Promoter]: ORAL, Species: RAT, Strain/Sex: F344/MALE): bladder: carcinoma or papilloma
- outcome (Carcinogen: N-[4-(5-NITRO-2-FURYL)-2-THIAZOLYL]FORMAMIDE, 24554-26-5, Doses [Carcinogen]: 0.2% IN DIET FOR 6 WK, Doses [Promoter]: 0, 5% IN PROLAB DIET FOR 72 WK BEGINNING POST CARCINOGEN TREATMENT (STUDY DURATION: 78 WK), Route [Carcinogen]: ORAL, Route [Promoter]: ORAL, Species: RAT, Strain/Sex: F344/MALE): urinary bladder: carcinoma, carcinoma or papilloma
- outcome (Carcinogen: N-[4-(5-NITRO-2-FURYL)-2-THIAZOLYL]FORMAMIDE, Doses [Carcinogen]: 0.2% IN DIET FOR 6 WK, Doses [Promoter]: 0, 3% IN PROLAB DIET FOR 72 WK BEGINNING POST CARCINOGEN TREATMENT (STUDY DURATION: 78 WK), Route [Carcinogen]: ORAL, Route [Promoter]: ORAL, Species: RAT, Strain/Sex: F344/MALE): urinary bladder: carcinoma, carcinoma or papilloma

SMILES: COc1ccc(O)cc1
- outcome (Carcinogen: DIETHYLNITROSAMINE, 55-18-5, N-METHYLNITROSOUREA, 684-93-5, 1,2-DIMETHYLHYDRAZINE, 540-73-8, N-BUTYL-N-(4-HYDROXYBUTYL)N, Carcinogen: DIETHYLNITROSAMINE, 55-18-5, N-METHYLNITROSOUREA, 684-93-5, 1,2-DIMETHYLHYDRAZINE, 540-73-8, N-BUTYL-N-(4-HYDROXYBUTYL)N, Doses [Carcinogen]: 100 MG/KG BW DEN ONCE FOLLOWED BY 20 MG/KG BW MNU 2/WK FOR 2 WK THEN 40 MG/KG BW DMH 2/WK FOR THE NEXT 2 WK, 0.05% BBN I, Doses [Promoter]: 0, 0.4% IN DIET FOR 24 WK BEGINNING POST CARCINOGEN TREATMENT (STUDY DURATION: 28 WK), Route [Carcinogen]: INTRAPERITONEAL, INTRAPERITONEAL, SUBCUTANEOUS, ORAL, Route [Carcinogen]: INTRAPERITONEAL, INTRAPERITONEAL, SUBCUTANEOUS, ORAL, Route [Promoter]: ORAL, Species: RAT, Strain/Sex: F344/MALE): forestomach: papilloma

SMILES: CCC(C)C(NC(=O)C(CCCNC(=N)N)NC(=O)C(Cc1c[nH]cn1)NC(=O)C(CO)NC(=O)C1CCCN1C(=O)C(CC(=O)O)NC(=O)C(CC(C)C)NC(=O)C(CC(N)=O)NC(=O)C(CCC(N)=O)NC(=O)C(CC(C)C)NC(=O)C(CC(N)=O)NC(=O)C(CCCCN)NC(=O)C(NC(=O)C(NC(=O)C(CO)NC(=O)C(CCSC)NC(=O)C(CCCNC(=N)N)NC(=O)CNC(=O)C(CO)NC(=O)C1CCCN1C(=O)C(C)NC(=O)C(N)CCCCN)C(C)CC)C(C)C)C(=O)NC(CO)C(=O)NC(CC(=O)O)C(=O)NC(CCCNC(=N)N)C(=O)NC(CC(=O)O)C(=O)NC(C(=O)NC(CCSC)C(=O)NCC(=O)NC(Cc1c[nH]c2ccccc12)C(=O)NC(CCSC)C(=O)NC(CC(=O)O)C(=O)NC(Cc1ccccc1)C(N)=O)c1ccc(OS(=O)(=O)O)cc1 (stereo unspecified) (H-KAPSGRMSIVKNLQNLDPSHRISDRD[X1]MGWMDF-NH2; configuration not given here)
- outcome (Carcinogen: AZASERINE, 115-02-6, Doses [Carcinogen]: 30 MG/KG ON DAYS 19, 26, AND 54 OF AGE, Doses [Promoter]: 0, 2.5 UG/KG BW 1/D 3 D/WK FOR 8 MO BEGINNING 4 MO POST FIRST CARCINOGEN DOSE (STUDY DURATION: 8 MO), Route [Carcinogen]: INTRAPERITONEAL, Route [Promoter]: SUBCUTANEOUS, Species: RAT, Strain/Sex: WISTAR/MALE): pancreas: adenoma
- outcome (Carcinogen: N-NITROSOBIS(2-OXOPROPYL)AMINE, 60599-38-4, Doses [Carcinogen]: 5 MG/KG 1/WK FOR STUDY DURATION, Doses [Promoter]: 0, 30 IDU/KG 3 D/WK FOR 6 WK (STUDY DURATION: 15 WK), Route [Carcinogen]: SUBCUTANEOUS, Route [Promoter]: SUBCUTANEOUS, Species: HAMSTER, Strain/Sex: SYRIAN/MALE): pancreas: adenocarcinoma

SMILES: CCCCCCCCCC
- outcome (Carcinogen: 7,12-DIMETHYLBENZ(A)ANTHRACENE, Doses [Carcinogen]: TOP, Route [Carcinogen]: DERMAL, Route [Promoter]: DERMAL, Species: MOUSE, Strain/Sex: FEMALE): integumentary system (skin)
- outcome (Carcinogen: BENZO(A)PYRENE, Doses [Carcinogen]: TOP, Route [Carcinogen]: DERMAL, Route [Promoter]: DERMAL, Species: MOUSE, Strain/Sex: FEMALE): integumentary system (skin)
